Calls of active or inactive are those of the source. The rule behind the calls is not given here.
Key:
[1] = tested on: Porcine reproductive and respiratory syndrome virus; assay: Antiviral activity against Porcine reproductive and respiratory syndrome virus infected in MARC145 cells assessed as reduction in viral replication by microscopic analysis; assay type: functional, organism-based
[2] = tested on: Zika virus; assay: Antiviral activity against ZIKV ZG-01 infected in A549 cells preincubated for 1 hr followed by replacement with fresh media containing compound for 48 hrs by crystal violet staining based plaque assay; assay type: functional, organism-based; conditions: ZG-01, A549
[3] = Cytotoxicity against human A549 cells assessed as reduction in cell viability incubated for 48 hrs by MTT assay; assay type: toxicity, cell-based
[4] = target: NS5 (Zika virus) (UniProt A0A143MHK7); assay: Binding affinity to ZIKV RdRP by SPR assay

SMILES	EC50 [1]	EC50 [2]	CC50 at 48 h [3]	Activity [4]
COc1cc(O)c2c(c1)[C@@H](O)[C@H]1C[C@](C)(O)[C@H](O)C[C@@H]1C2=O [TETRAHYDROALTERSOLANOL C]	12.1 µM	–	–	–
C[C@]1(O)CC2=C(C[C@@]1(C)O)C(=O)c1c(O)cc(NC3CC3)c(O)c1C2=O	–	48.1 µM	> 50 µM	–
C[C@]1(O)CC2=C(C[C@@]1(C)O)C(=O)c1c(O)cc(N3CCOCC3)c(O)c1C2=O	–	15.4 µM	> 50 µM	–
C[C@]1(O)CC2=C(C[C@@]1(C)O)C(=O)c1c(O)cc(NCCC3=CCCCC3)c(O)c1C2=O	–	5.7 µM	> 50 µM	–
C[C@]1(O)CC2=C(C[C@@]1(C)O)C(=O)c1c(O)cc(NCCN3CCCCC3)c(O)c1C2=O	–	8.7 µM	> 50 µM	–
C[C@]1(O)CC2=C(C[C@@]1(C)O)C(=O)c1c(O)cc(NC3CCC3)c(O)c1C2=O	–	38.4 µM	> 50 µM	–
CCC(C)Nc1cc(O)c2c(c1O)C(=O)C1=C(C[C@@](C)(O)[C@@](C)(O)C1)C2=O (some centres undefined)	–	> 50 µM	> 50 µM	–
C[C@]1(O)CC2=C(C[C@@]1(C)O)C(=O)c1c(O)cc(NCCO)c(O)c1C2=O	–	48.4 µM	> 50 µM	–
C[C@]1(O)CC2=C(C[C@@]1(C)O)C(=O)c1c(O)cc(NCc3cccs3)c(O)c1C2=O	–	12.2 µM	> 50 µM	–
C[C@]1(O)CC2=C(C[C@@]1(C)O)C(=O)c1c(O)cc(NCCc3cccs3)c(O)c1C2=O	–	7.8 µM	> 50 µM	–
C[C@]1(O)CC2=C(C[C@@]1(C)O)C(=O)c1c(O)cc(NC3CCCCC3)c(O)c1C2=O	–	15.5 µM	> 50 µM	–
C[C@]1(O)CC2=C(C[C@@]1(C)O)C(=O)c1c(O)cc(NCC3CCCO3)c(O)c1C2=O (some centres undefined)	–	36.1 µM	> 50 µM	–
CCCNc1cc(O)c2c(c1O)C(=O)C1=C(C[C@@](C)(O)[C@@](C)(O)C1)C2=O	–	42.6 µM	> 50 µM	–
CCNc1cc(O)c2c(c1O)C(=O)C1=C(C[C@@](C)(O)[C@@](C)(O)C1)C2=O	–	44.2 µM	> 50 µM	–
C[C@]1(O)CC2=C(C[C@@]1(C)O)C(=O)c1c(O)cc(N3CCCC3)c(O)c1C2=O	–	25.6 µM	> 50 µM	–
C[C@]1(O)CC2=C(C[C@@]1(C)O)C(=O)c1c(O)cc(NCCc3ccco3)c(O)c1C2=O	–	8.1 µM	> 50 µM	–
C[C@]1(O)CC2=C(C[C@@]1(C)O)C(=O)c1c(O)cc(NCc3ccccc3)c(O)c1C2=O	–	10.3 µM	> 50 µM	–
NC(=O)c1ncn([C@@H]2O[C@H](CO)[C@@H](O)[C@H]2O)n1	–	–	–	inactive
C[C@]1(O)CC2=C(C[C@@]1(C)O)C(=O)c1c(O)cc(NCCN3CCCC3)c(O)c1C2=O	–	8.4 µM	> 50 µM	–
C[C@]1(O)CC2=C(C[C@@]1(C)O)C(=O)c1c(O)cc(NCCc3ccccc3)c(O)c1C2=O	–	4.2 µM	> 50 µM	–
C[C@]1(O)CC2=C(C[C@@]1(C)O)C(=O)c1c(O)cc(NCc3ccco3)c(O)c1C2=O	–	16.5 µM	> 50 µM	–
C[C@]1(O)CC2=C(C[C@@]1(C)O)C(=O)c1c(O)cc(NCCN3CCOCC3)c(O)c1C2=O	–	24.5 µM	> 50 µM	–
C[C@]1(O)CC2=C(C[C@@]1(C)O)C(=O)c1c(O)cc(NC3CCCC3)c(O)c1C2=O	–	17.1 µM	> 50 µM	–

Source: ChEMBL document CHEMBL5620422, “Design, synthesis, and biological evaluation of a series of new anthraquinone derivatives as anti-ZIKV agents” (Eur J Med Chem, 2023)
